Laboratory results published in patent US20150328109A1, “DERMAL COMPOSITIONS CONTAINING UNNATURAL HYGROSCOPIC AMINO ACIDS” (MEDPHARM LIMITED, priority 2012, published 2015).

Legend:
Normal RHE tissue = experiment: Tissue viability (MTT) of normal RHE tissue during 6 day treatment; type: cell-based, human; settings: 10% w/v, n = 1
Procedure: In this investigation two types of RHE tissues were used, which were healthy and psoriatic tissue sourced from the MatTek Corporation (Ashland, Mass.). For simplicity the protocol below refers to both tissue types as RHE tissues and all media as assay medium as both tissues were treated in the same manner. The only exception was that two different types of media were required for the different types of tissue (healthy and psoriatic tissues).
• (i) At the end of the equilibration period, the media for each well was removed then the tissues were lifted and placed on culture stands and fresh pre-warmed (37° C.) assay medium (5 mL) was added to the well. • (ii) Using a positive displacement pipette, the test solutions 10% w/v, N-H-S(N-hydroxyserine) in water, […], N-H-G (N-hydroxyglycine) in water, 10% w/v, L-h-S (L-homoserine) in water and 10% w/v, combination 1:1:1 (N-H-S:N-H-G: L-h-S) in water were dispensed (50±0.5 μL) onto the top of the RHE tissue. The solutions or controls were then distributed over the surface of the RHE tissues using a sterile glass rod. • (iii) The lid was placed on the well plate containing the RHE tissue and the tissues were returned to the incubator (37° C., 5% CO2) 48 h between applications.
• (i) Every 48 h culture media for the RHE tissues was removed from the 6 well plates and transferred into tubes stored (−20° C.) for cytokine analysis. • (ii) Fresh pre-warmed (37° C.) assay medium (5 mL) was added to each tissue using an automatic pipette. • (iii) From each treatment 1 tissue was removed for viability assessment. • (iv) The RHE tissues were subsequently rinsed with 100 μL of PBS to remove the residual solution from the epidermal surface. • (v) Using a positive displacement pipette, the solutions 10% w/v, N-H-S in water, 1% w/v, N-H-G in water, 10% w/v, L-h-S in water and 10% w/v, combination 1:1:1 (N-H-S:N-H-G:L-h-S) were dispensed (50±0.5 μL) onto the top of the RHE tissue. The solutions or controls were then distributed over the surface of the RHE tissues using a sterile glass rod. • (vi) The lid was placed on the well plate containing the RHE tissue and the tissues were returned to the incubator (37° C., 5% CO2) 48 h between applications at t=0, 48 and 96 h.
To determine the viability of the RHE tissue post application of the solutions and controls, the following procedure was used: • (i) The required wells in 24-well plates were filled with 300 μL MTT solution and protected from light. • (ii) The tissues were removed from the post treatment incubation plates and excess solutions and controls were removed with sterile cotton swabs. • (iii) The RHE tissue was subsequently rinsed with 1000 μL of PBS five times to remove the residual solution from the epidermal surface. • (iv) The tissue from Step (iii) was blotted dry with cotton swabs. • (v) The treated tissues from Step (iv) were transferred into wells in 24-well plates pre-filled with MTT solution (300 μL). The plates were incubated for 3 h (+/−5 min) at 37° C., 5% CO2 and 95% humidified atmosphere. • (vi) The treated tissues were subsequently transferred into a new plate filled with 1 mL of extractant solution. • (vii) The plates were sealed using Parafilm® to stop evaporation and protected from light using foil before extract at 2-8° C. to minimise evaporation. • (viii) Following extraction the RHE tissue were removed from the wells and an additional 1 mL of extractant solution was added. Using a pipette the extraction solution was mixed and made visually homogenous. • (ix) The solution from Step (viii) was transferred in to n=3 wells (200 μL per well) using an automatic pipette of a 96 well plate and the optical density was measured at a wavelength of 570 nm.

RHE tissues = experiment: RHE irritation assessment Method 2: Mattek's MTT effective time (ET-50) assay; type: cell-based, human; settings: for ET-50 (exposure time to reduce viability to 50% of the control): 1% w/v N-H-G in water, dosing periods 2, 6 and 24 h
Description: Method 1 was used to investigate the potential for alpha-hydroxylglycine (α-H-G) and L-homoserine (L-h-S) to cause skin irritation. The protocol is primarily designed and validated for single compounds rather than solutions. Therefore to provide further insight into the potential of N-hydroxyserine and N-hydroxylglycine to cause skin irritation a second protocol was investigated using Mattek's MTT effective time (ET-50) assay which is designed to test mixtures of compounds. In addition two commercially available amino acid related compound (L-serine and glycine) were selected and tested as comparators for N-hydroxyserine and N-hydroxylglycine. […] As a general guideline, the following groupings can be used in assigning expected in vivo irritancy responses based on the ET-50 results obtained: The irritation assessment of the solutions was performed using the protocol described below. Each of the test solutions; […] Damaged tissues were discarded. • (iii) The tissue were transferred into the assay medium and incubated at 37° C., 5% CO2 until the application of the test solutions; […] The working MTT solution was prepared using the following procedure: • (i) MTT concentrate was removed from the freezer and allowed to thaw. The concentrate was diluted with the MTT diluent solution (1 mL of concentrate to 4 mL of MTT diluent solution). • (ii) MTT solution from Step (i) was centrifuged at a g-force of 300 for 5 min to remove any particulates. • (iii) The supernatant of the MTT solution from Step (ii) was stored in the dark at 4° C. for a maximum period of 24 h and used as required. […] The plates were incubated for 3 h (+/−5 min) at 37° C., 5% CO2 and 95% humidified atmosphere. • (vi) The treated tissues were subsequently transferred into a new plate filled with 1 mL of extractant solution. • (vii) The plates were sealed using Parafilm® to stop evaporation and protected from light using foil before extract at 2-8° C. to minimise evaporation. • (viii) Following extraction the RHE tissue were removed from the wells and an additional 1 mL of extractant solution was added. Using a pipette the extraction solution was mixed and made visually homogenous. • (ix) The solution from Step (viii) was transferred in to n=3 wells (200 μL per well) using an automatic pipette of a 96 well plate and the optical density was measured at a wavelength of 570 nm.

SMILES	Normal RHE tissue viability as a percentage of untreated control (%) (Normal RHE tissue; 2 days in treatments)	Normal RHE tissue viability as a percentage of untreated control (%) (Normal RHE tissue; 4 days in treatments)	Normal RHE tissue viability as a percentage of untreated control (%) (Normal RHE tissue; 6 days in treatments)	impact on the viability of the RHE tissues (RHE tissues; dosing periods t=2, 6 and 24 h, 1% w/v N-H-G, 10% w/v L-Serine, 10% w/v Glycine)	ET-50 (exposure time to reduce viability to 50% of the control) (RHE tissues; 10% w/v N-H-S) [h]	ET-50 (exposure time to reduce viability to 50% of the control) (RHE tissues; 10% w/v N-H-S, listed as N-H-S) [h]	expected in vivo irritancy from ET-50 (RHE tissues; 10% w/v N-H-S, 1% w/v N-H-G, 10% w/v L-Serine, 10% w/v Glycine in water)
O=C(O)CNO [N-hydroxyglycine, N-Hydroxyglycine]	97.9	91.5	93.3	no significant impact			
O=C(O)[C@H](CO)NO [N-hydroxyserine]	83.4	91.5	86.9		12 to 24	22.8	very mild (12-24 very mild)
